For assay [1], the system named is Human neutrophils (LTB4 chemotaxis). The experiment in a line: Modified Boyden Chamber Chemotaxis, LTB4. It is filed as cell-based. Set-up: key to Chemotaxis LTB4, inactive at the dose tested: IA: Inactive at the dose tested. Conditions: for Relative Potency, Chemotaxis LTB4: potency relative to the compound of Example 1(b), defined as 1.0, 3×10^-8 M LTB4, 40-90 minute, 37° C. How it is done: (§1) Human neutrophils were isolated from citrated peripheral blood using standard techniques of dextran sedimentation, followed by centrifugation on Histopaque® sterile solution (Sigma) or Ficoll-paque® (Pharmacia) and hypotonic lysis of erythrocytes. A final cell suspension of 3.4×10^6 neutrophils/ml of HEPES-buffered Hanks' balanced salt solution (HBSS, pH 7.3) was added to the upper well (0.8 ml) of a modified Boyden chamber (blind well). […] The number of neutrophils migrating into the lower chamber in the absence of chemoattractant was subtracted from the number of cells migrating in the presence of a chemoattractant. Inhibition of chemotaxis by test compounds was expressed as percent inhibition relative to uninhibited control. […] Pat. No. 4,889,871.

Assay [2] concerns Human neutrophils (fMLP chemotaxis). The experiment in a line: Modified Boyden Chamber Chemotaxis, fMLP. Conditions: for Relative Potency, Chemotaxis fMLP: potency relative to the compound of Example 1(b), defined as 1.0. The assay is classed as cell-based. How it is done:
as §1

The next assay has as its target T1, LTB4 Receptor (Homo sapiens, UniProt Q15722).
T1 construct: Neutrophils were purified from venous blood of normal human donors; endogenous in cells; host or cells: human peripheral blood neutrophils (purity >95%)
The assay can be described thus: LTB4 Receptor Binding Assay ((3H) LTB4, neutrophils). Conditions: potency relative to the compound of Example 1(b), defined as 1.0, 0.6×10^-9 M (3H) LTB4, 0° C., 45 minutes. How it is done:
The incubation was carried out at 0° C. for 45 minutes and terminated by adding 5 ml of ice-cold HBSS followed by rapid filtration of the incubation mixture under vacuum through GF/C glass fiber filters. The filters were further washed with 10 ml HBSS and radioactivity was determined. […] All data refer to specific binding. […] Pat. No. 4,889,871.

In general, IC50 refers to the concentration that gives 50% inhibition.

Structures are written as SMILES.

T1 sequence (Q15722 whole entry): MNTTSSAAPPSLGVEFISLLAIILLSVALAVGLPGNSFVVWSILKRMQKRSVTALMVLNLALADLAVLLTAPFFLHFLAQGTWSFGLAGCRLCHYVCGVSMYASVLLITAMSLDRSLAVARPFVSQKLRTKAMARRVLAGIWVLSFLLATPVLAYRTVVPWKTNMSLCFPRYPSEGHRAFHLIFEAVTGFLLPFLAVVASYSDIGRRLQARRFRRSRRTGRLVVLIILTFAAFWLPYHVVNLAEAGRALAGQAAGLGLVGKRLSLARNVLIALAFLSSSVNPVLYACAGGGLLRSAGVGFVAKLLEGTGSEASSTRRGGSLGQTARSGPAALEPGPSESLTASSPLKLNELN

For the molecule `CCCc1c(OCCCOc2ccc(C(C)=O)c(OC)c2CCC)ccc2c1OC(C(=O)O)CC2` (centres unmarked) [Example 1(b), 7-[3-(4-acetyl-3-methoxy-2-propylphenoxy)propoxy]-3,4-dihydro-8-propyl-2H-1-benzopyran-2-carboxylic acid, reference compound], the half-maximal inhibitory concentration (IC50) in assay [1] (Homo sapiens, Neutrophil, value in parentheses, 3×10^-8 M LTB4) turned out to be 1.8 µM; in assay [2] (Homo sapiens, Neutrophil, value in parentheses), 5.4 µM.

Take `CCCc1c(OCCCOc2ccc(-c3cocn3)c(OC)c2CCC)ccc2c1OC(C(=O)O)CC2` (centres unmarked) [Example 5, 3,4-Dihydro-7-[3-[3-methoxy-4-(4-oxazolyl)-2-propylphenoxy]propoxy]-8-propyl-2H-1-benzopyran-2-carboxylic acid]: the “Relative Potency, LTB4 Receptor Binding” value at LTB4 Receptor came out at 4.0. Also, in assay [1], the “Relative Potency, Chemotaxis LTB4” value is reported as 2.2. For the same molecule, the “Relative Potency, Chemotaxis fMLP” value in assay [2] was 0.73.

`CCCc1c(OCCCOc2ccc(-c3c[nH]c(SCc4ccccc4)n3)c(OC)c2CCC)ccc2c1OC(C(=O)O)CC2` (centres unmarked) [Example 8, 3,4-Dihydro-7-[3-[3-methoxy-4-[2-[(phenylmethyl)thio]-1H-imidazol-4-yl]-2-propylphenoxy]propoxy]-8-propyl-2H-1-benzopyran-2-carboxylic acid]: the “Relative Potency, LTB4 Receptor Binding” value on LTB4 Receptor is listed as 2.65. Moreover, in assay [1], the “Relative Potency, Chemotaxis LTB4” value is recorded as 1.86. Also, the “Relative Potency, Chemotaxis fMLP” value in assay [2] worked out at 2.0.

For `CCCc1c(OCCCOc2ccc(-c3c[nH]cn3)c(OC)c2CCC)ccc2c1OC(C(=O)O)CC2` (centres unmarked) [Example 9], the “Relative Potency, LTB4 Receptor Binding” value at LTB4 Receptor came to 1.0. The “Relative Potency, Chemotaxis LTB4” value in assay [1] was 0.66. Also, the “Relative Potency, Chemotaxis fMLP” value in assay [2] amounted to 0.45.

On to `CCCc1c(OCCCOc2ccc(-c3csc(N)n3)c(OC)c2CCC)ccc2c1OC(C(=O)O)CC2` (centres unmarked) [Example 10, 7-[3-[4-(2-amino-4-thiazolyl)3-methoxy-2propylphenoxy]propoxy]3,4-dihydro-8-propyl-2H-1-benzopyran-2-carboxylic acid], for which the “Relative Potency, LTB4 Receptor Binding” value on LTB4 Receptor was 1.56. Further, in assay [1], the “Relative Potency, Chemotaxis LTB4” value was determined as 0.63. In addition, the “Relative Potency, Chemotaxis fMLP” value in assay [2] stood at 1.4.

With `CCCc1c(OCCCOc2ccc(-c3cscn3)c(OC)c2CCC)ccc2c1OC(C(=O)O)CC2` (centres unmarked) [Example 12, 3,4-dihydro-7-[3-[3-methoxy-2-propyl-4-(4-thiazolyl)phenoxy]-propoxy]-8-propyl-2H-1-benzopyran-2-carboxylic acid], the “Relative Potency, LTB4 Receptor Binding” value at LTB4 Receptor is 4.5. Further, in assay [1], the “Relative Potency, Chemotaxis LTB4” value is given as 3.0. For the same molecule, the “Relative Potency, Chemotaxis fMLP” value in assay [2] amounted to 1.1.

In the case of `CCCc1c(OCCCOc2ccc(-c3coc(C)n3)c(OC)c2CCC)ccc2c1OC(C(=O)O)CC2` (centres unmarked) [Example 14, 3,4-dihydro-7-[3-[3-methoxy-4-(2-methyl-4-oxazolyl)-2-propylphenoxy]propoxy]-8-propyl-2H-1-benzopyran-2-carboxylic acid], on LTB4 Receptor, the “Relative Potency, LTB4 Receptor Binding” value is 0.47. Moreover, in assay [1], the “Relative Potency, Chemotaxis LTB4” value is on record as less than 0.1.

As to `C=CCc1c(OCCCOc2ccc3c(c2CCC)OC(C(=O)O)CC3)ccc(-c2cscn2)c1OC` (centres unmarked) [Example 17, 3,4-dihydro-7-[3-[3-methoxy-2-(2-propenyl)-4-(4-thiazolyl)-phenoxy]propoxy]-8-propyl-2H-1-benzopyran-2-carboxylic acid], at LTB4 Receptor, the “Relative Potency, LTB4 Receptor Binding” value amounted to 11.6. Besides, in assay [1], the “Relative Potency, Chemotaxis LTB4” value was found to be 8.3. Also, in assay [2], the “Relative Potency, Chemotaxis fMLP” value is reported as 1.9.

For the molecule `CCCc1c(OCCCOc2ccc(-c3csc(OC)n3)c(OC)c2CCC)ccc2c1OC(C(=O)O)CC2` (centres unmarked) [Example 24, 3,4-Dihydro-7-[3-[3-methoxy-4-(2-methoxy-4-thiazolyl)-2-propylphenoxy]propoxy]-8-propyl-2H-1-benzopyran-2-carboxylic acid], the “Relative Potency, LTB4 Receptor Binding” value at LTB4 Receptor is given as 0.31. Further, the “Relative Potency, Chemotaxis LTB4” value in assay [1] is listed as less than 0.23.

On to `CCCc1c(OCCCOc2ccc(-c3csc(=S)[nH]3)c(OC)c2CCC)ccc2c1OC(C(=O)O)CC2` (centres unmarked) [Example 26, 3,4-Dihydro-7-[3-[4-(2,3-dihydro-2-thioxo-4-thiazolyl)-3-methoxy-2-propylphenoxy]propoxy]-8-propyl-2H-1-benzopyran-2-carboxylic acid], for which the “Relative Potency, LTB4 Receptor Binding” value on LTB4 Receptor turned out to be 0.51.

With `CCCc1c(OCCCOc2ccc(-c3csc(SC)n3)c(OC)c2CCC)ccc2c1OC(C(=O)O)CC2` (centres unmarked) [Example 28], on LTB4 Receptor, the “Relative Potency, LTB4 Receptor Binding” value is on record as 0.19. Besides, the “Relative Potency, Chemotaxis LTB4” value in assay [1] was 0.05.

In the case of `CCCc1c(OCCCOc2ccc(-c3csc(SCc4ccccc4)n3)c(OC)c2CCC)ccc2c1OC(C(=O)O)CC2` (centres unmarked) [Example 29], at LTB4 Receptor, the “Relative Potency, LTB4 Receptor Binding” value is recorded as 0.02. Moreover, the “Chemotaxis LTB4, inactive at the dose tested” value in assay [1] (dose not given, 3×10^-8 M LTB4) was “IA”.

The record behind these values is patent US5073562A, “Alkoxy-substituted dihydrobenzopyran-2-carboxylic acids and derivatives thereof” (G. D. Searle & Co., priority 1990, dated 1991).
